According to US4692525A, “Process for the separation of optical isomers of racemic 1-pyridyl-alkyl-4-aryl piperazines, and optical isomers obtained thereby” (Malesci S.p.A. Istituto Farmacobiologico, priority 1983, dated 1987):

Legend:
[1] = Acute toxicity, i.p., mice (DL50); type: in vivo; conditions: mouse, in vivo, ip, i.p. injection, male Swiss mice; Wilcoxon method
Procedure: (§1) Male Swiss mice of 20-25 g body weight were treated by i.p. injection with rated concentrations of the three compounds. The values of DL50 and the relative confidence limits were calculated according to the method of Wilcoxon (J. Pharmac. Exp. Ther. 96, 99; 1949).

[2] = tested on: post-synaptic alpha-receptors; test: Alpha-blocking activity in vitro, isolated rabbit aorta, antagonism of nor-adrenaline response; type: biochemical; conditions: for pA2 (M ±DS): isolated rabbit aorta, versus nor-adrenaline
Procedure: The aorta isolated from a rabbit and prepared according to the procedure of Furchgott and Bhadrakom (J. Pharm. Exp. Ther. 108, 129; 1953) was tested with cumulative doses of nor-adrenaline till maximum responde obtainable in the absence and in the presence of the three compounds. The pA2 values were calculated according to Ariens and Van Rossum (Arch. Int. Pharmacodyn. 110, 275; 1957)
It is evident from the Table given above that the (+) derivative is 100 times as active as the (-) derivative and almost 3 times as active as the (r) compound in blocking the post-synaptic alpha-receptors response to nor-adrenaline.

[3] = tested on: Spontaneously hypertensive rats; test: Hypotensive activity in vivo, spontaneously hypertensive rats, oral; set-up: species or system rat; conditions: for ED50: Rattus norvegicus, 30' after oral administration, obtained from graphs; for anti-hypertensive activity (in words): in vivo, comparison among racemate and isomers
Procedure: Spontaneously hypertensive rats were employed after they were fasted for 16 hours and tested for their systemic pressure by bloodless measurements before and after oral administration of the three compounds at the doses of 5-10-15 mg/kg.
The administration of all the compounds gives rise to a lowering of the dose-dependent hypertension, because the regression coefficients are always significative. The ED50 values in mg/kg, obtained from the graphs of the activities observed, are as follows;

[4] = tested on: Male Swiss mice; test: Acute toxicity, i.p., mice (DL50); type: in vivo
Procedure: as §1

| SMILES | LD50 [1] [mg/kg] | pA2 (M ±DS) [2] | ED50 ([3]; 0.5 h) [mg/kg] | ED50 ([3]; 1.5 h, 1 h) [mg/kg] | toxicity compared with racemic compound (in words) ([4]; LD50 values or symptomatology) | activity relative to the (-) derivative in blocking the post-synaptic alpha-receptors response to nor-adrenaline ([2]; versus (-) derivative) [times] | activity relative to the (r) compound in blocking the post-synaptic alpha-receptors response to nor-adrenaline ([2]; versus (r) compound) [times] | anti-hypertensive activity (in words) [3] | anti-hypertensive activity (in words) ([3]; listed as dextrorotatory isomer) | DL50 ([4]; i.p. injection, male Swiss mice, Wilcoxon method) [mg/kg] | anti-hypertensive activity (in words) ([3]; listed as laevorotatory isomer) |
| --- | --- | --- | --- | --- | --- | --- | --- | --- | --- | --- | --- |
| CCOC(CN1CCN(c2ccccc2OC)CC1)c1cccnc1 (racemic) [(r), (±) 1-(2-ethoxy-2-ethoxy-2-(3'-pyridyl)ethyl)-4-(o-methoxyphenyl)piperazine] | 75 | 8.62 ± 0.11 | 7.8 | 18.8 | – | – | – | – | – | – | – |
| CCOC(CN1CCN(c2ccccc2OC)CC1)c1cccnc1 (single isomer, unassigned; (+)) [(+), (+) 1-(2-ethoxy-2-(3'-pyridyl)ethyl)-4-(o-methoxyphenyl)piperazine] | 65 | 9.04 ± 0.03 | 5.5 | 10.9 | same toxicity of said racemic compound | 100 | ~3 | most active form | higher anti-hypertensive activity than the racemic compound | – | – |
| CCOC(CN1CCN(c2ccccc2OC)CC1)c1cccnc1 (single isomer, unassigned; (-)) [(-), (-) 1-(2-ethoxy-2-(3'-pyridyl)ethyl)-4-(o-methoxyphenyl)piperazine] | – | 6.95 ± 0.05 | – | – | – | – | – | quite low activity | – | 68 | almost inactive |
